Test: Pharmacokinetics in humans after a 10 mg tablet under fasting conditions
Type: in vivo
Conditions: human patients, single 10 mg oral dose, mean±SD
Procedure: Tablets containing a 10 mg dose of ABT-869 ethanolate, as prepared above, were administered to 11 patients in the morning with 240 mL of water under fasting conditions (defined as no food or drink consumption except water and concomitant medications for 2 hours prior to dosing). Following dosing, 4-mL blood samples were collected for pharmacokinetic analyses at the following times: 0 (pre-dose), 1, 3, 4, 6, 8, 24 and 48 hours. These samples were analyzed for ABT-869 plasma concentrations using Liquid Chromatography/Tandem Mass Spectrometry (LCMS/MS). The lower limit of quantification (LLOQ) for the assay was 1.1 ng/mL.
Pharmacokinetic parameters including the maximum observed plasma concentration (Cmax), time to Cmax (Tmax), the area under the plasma concentration-time curve (AUC) from 0 to time of the last measurable concentration (AUC0-48) and AUC from 0 to infinite time (AUCoo) were determined by non-compartmental methods using WinNonlin Professional version 5.2 software.

AUC0-48 per mg of dose: about 0.40±0.10 μg·h/mL/mg | AUCoo per mg of dose: about 0.55±0.17 μg·h/mL/mg | Cmax per mg of dose: about 0.023±0.004 μg/mL/mg | Tmax (plasma): ~2.8 h
SMILES: Cc1ccc(F)c(NC(=O)Nc2ccc(-c3cccc4[nH]nc(N)c34)cc2)c1 [ABT 869, N-[4-(3-amino-1H-indazol-4-yl)phenyl]-N′-(2-fluoro-5-methylphenyl)-urea]
